Experimental findings from patent US4417052A, “Phenyl-lower-alkyl piperidines and pyrrolidines” (Sterling Drug Inc., priority 1981, dated 1983) are described below.

Values after ≈ are worked out from the molar mass of the structure shown. Read-outs that look alike come from different tables or passages of the source.

The nature of series [1]: antipyretic activity in the rat. The series is classed as in vivo.
The subject of series [2] is carrageenin-induced foot edema. The experiment in a line: inhibition of carrageenin-induced foot edema test (C.E.). In kind it is in vivo. The settings on record: oral; for inhibition in vivo at 80 µmol/kg: dose 0.08 millimoles/kg; for inhibition in vivo at 80 µmol/kg / inhibition in vivo at 324 µmol/kg / inhibition in vivo at 5 µmol/kg / inhibition in vivo at 20 µmol/kg / inhibition in vivo at 4 µmol/kg: read-out: C.E. percent inhibition; for inhibition in vivo at 5 µmol/kg: dose 0.005 millimoles/kg; for inhibition in vivo at 20 µmol/kg: dose 0.02 millimoles/kg; for inhibition in vivo at 4 µmol/kg: dose 0.004 millimoles/kg.

Series [3] has as its system phenyl-p-quinone-induced writhing. Briefly: phenyl-p-quinone-induced writhing test (PPQ). The series is classed as in vivo, mice. The note with it: Mus musculus, po. From the text:
(§1) The test procedures used to determine the analgesic activities of the compounds have been described in detail in the prior art and are as follows: the acetylcholine-induced abdominal constriction test, which is a primary analgesic screening test designed to measure the ability of a test agent to suppress acetylcholine-induced abdominal constriction in mice, described by Collier et al., Brit. J. Pharmacol. Chemotherap. 32, 295 (1968); a modification of the anti-bradykinin test, which is also a primary analgesic screening procedure, described by Berkowitz et al., J. Pharmacol. Exp. Therap. 177, 500-508 (1971), Blane et al., J. Pharm. Pharmacol. 19, 367-373 (1967), Botha et al., Eur. J. Pharmacol. 6, 312-321 (1969) and Deffenu et al., J. Pharm. Pharmacol. 18, 135 (1966); the phenyl-p-quinone-induced writhing test, also a primary analgesic screening test, designed to measure the ability of a test agent to prevent phenyl-p-quinone-induced writhing in mice, described by Pearl and Harris, J. Pharmacol. Exptl. Therap. 154, 319-323 (1966); the rat tail flick radiant thermal heat analgesic (agonist) test described by D'Amour and Smith, J. Pharmacol. Exptl. Therap. 72, 74 (1941) as modified by Bass and VanderBrook, J. Am. Pharm. Assoc. Sci. Ed. […]
On the technique in general: An intraperitoneal irritant provokes the stretching counted in writhing tests.

The test system of series [4] is acetylcholine-induced abdominal constriction. Briefly: acetylcholine-induced abdominal constriction test (Ach). The series is classed as in vivo, mice. The settings on record: for ED50: Mus musculus, read-out: Ach ED50. An excerpt: J. Pharmacol. Chemotherap. 32, 295 (1968); a modification of the anti-bradykinin test, which is also a primary analgesic screening procedure, described by Berkowitz et al., J. Pharmacol. Exp. Therap. 177, 500-508 (1971), Blane et al., J. Pharm. Pharmacol. 19, 367-373 (1967), Botha et al., Eur. J. Pharmacol. 6, 312-321 (1969) and Deffenu et al., J. Pharm. Pharmacol. 18, 135 (1966); the phenyl-p-quinone-induced writhing test, also a primary analgesic screening test, designed to measure the ability of a test agent to prevent phenyl-p-quinone-induced writhing in mice, described by Pearl and Harris, J. Pharmacol. Exptl. Therap. 154, 319-323 (1966); the rat tail flick radiant thermal heat analgesic (agonist) test described by D'Amour and Smith, J. Pharmacol. Exptl. Therap. 72, 74 (1941) as modified by Bass and VanderBrook, J. Am. Pharm. Assoc. Sci. Ed. 41, 569 (1956); and the phenazocine antagonist test, which is designed to measure the ability of a test agent to antagonize the effect of phenazocine in the above-indicated rat tail flick response test, described by Harris and Pierson, J. Pharmacol. Exptl. Therap. 143, 141 (1964).
The ED50 is the calculated Effective Dose in 50% of the test animals. The abbreviations s.c., p.o. and i.p. stand for subcutaneous, peroral and intraperitoneal routes of administration, respectively. The compounds are identified by the Example numbers above where their preparations are described.

The subject of another series is rat tail flick response. The experiment in a line: rat tail flick radiant thermal heat analgesic (agonist) test (T.F. Ag.). The note with it: in vivo.
Text: as §1

For a further series, the system named is bradykinin. The experiment in a line: anti-bradykinin test (BDK). The series is classed as in vivo. An excerpt: The test procedures used to determine the analgesic activities of the compounds have been described in detail in the prior art and are as follows: the acetylcholine-induced abdominal constriction test, which is a primary analgesic screening test designed to measure the ability of a test agent to suppress acetylcholine-induced abdominal constriction in mice, described by Collier et al., Brit. J. Pharmacol. Chemotherap. 32, 295 (1968); a modification of the anti-bradykinin test, which is also a primary analgesic screening procedure, described by Berkowitz et al., J. Pharmacol. Exp. Therap. 177, 500-508 (1971), Blane et al., J. Pharm. Pharmacol. 19, 367-373 (1967), Botha et al., Eur. J. Pharmacol. 6, 312-321 (1969) and Deffenu et al., J. Pharm. Pharmacol. 18, 135 (1966); the phenyl-p-quinone-induced writhing test, also a primary analgesic screening test, designed to measure the ability of a test agent to prevent phenyl-p-quinone-induced writhing in mice, described by Pearl and Harris, J. Pharmacol. Exptl. Therap. 154, 319-323 (1966); the rat tail flick radiant thermal heat analgesic (agonist) test described by D'Amour and Smith, J. Pharmacol. Exptl. Therap. 72, 74 (1941) as modified by Bass and VanderBrook, J. Am. Pharm. Assoc. Sci. Ed. 41, 569 (1956); and the phenazocine antagonist test, which is designed to measure the ability of a test agent to antagonize the effect of phenazocine in the above-indicated rat tail flick response test, described by Harris and Pierson, J. Pharmacol. Exptl. Therap. 143, 141 (1964).
Data so obtained for the species found active in one or more of these tests are given in TABLE C below, results being expressed either in terms of the ED50 or, in the acetylcholine-induced writhing test, as the percent inhibition of writhing in the test animals at a given dose level. The ED50 is the calculated Effective Dose in 50% of the test animals. The abbreviations s.c., p.o. and i.p. stand for subcutaneous, peroral and intraperitoneal routes of administration, respectively. The compounds are identified by the Example numbers above where their preparations are described.

Series [5] has as its system effect of phenazocine in the rat tail flick response. Briefly: phenazocine antagonist test in the rat tail flick response (T.F. Antag.). The settings on record: in vivo.
Text: as §1

Series [6] relates to adjuvant-induced arthritis. The experiment in a line: inhibition of adjuvant-induced arthritis test (A.A.). The series is classed as in vivo. The settings on record: oral, read-out: A.A. percent inhibition; for inhibition in vivo at 5 µmol/kg: dose 0.005 millimoles/kg; for inhibition in vivo at 20 µmol/kg: dose 0.02 millimoles/kg; for inhibition in vivo at 80 µmol/kg: dose 0.08 millimoles/kg.

Series [7] relates to herpes simplex virus types 1 and 2. Briefly: in vitro anti-viral activity against herpes simplex viruses types 1 and 2 (BSC cell line, monkey kidney). The series is classed as cell-based. The note with it: read-out: MIC (Minimum Inhibitory Concentration). Here is the method:
Monolayers of tissue cultures (BSC, cell line, monkey kidney) were infected with one hundred TCID50 (Tissue Culture Infectious Dose50) of infectious virus. After one hour of virus adsorption, fresh maintenance medium containing various concentrations of the test compounds was added to the monolayers. Cultures were then incubated at 36°-37° C., and after forty-eight and seventy-two hours, cultures were examined microscopically. […] In the presence of an active compound, cells grow normally similar to those in the tissue culture control. Simultaneously with the anti-viral evaluation, the toxicity of each compound was evaluated in separate cultures. Identical concentrations of the test compound were added to the tissue culture monolayers in the absence of virus. Those concentrations of the compound which show toxic effects on the cells were not considered in the anti-viral evaluation.

For `CC(CN1CCOCC1)c1cccc(C(=O)c2ccccc2)c1.Cl.O` (stereo not drawn) [7H (HCl), 4-[2-(3-benzoylphenyl)propyl]morpholine hydrochloride monohydrate], the antipyretic activity result in series [1] (3.25 mg./kg. p.o.) is “not at 3.25 mg./kg”; in [1] (6.5 mg./kg. p.o.) it was “Showed significant antipyretic activity”; in [1] (13 mg./kg. p.o.), “Showed significant antipyretic activity”; in series [1] (26 mg./kg. p.o.) it was “Showed significant antipyretic activity”. Besides, in [2], the inhibition in vivo at 80 µmol/kg worked out at 68%. Further, the inhibition in vivo at 324 µmol/kg in [2] (dose 0.324 millimoles/kg) was 73%. Besides, the ED50 (in general, the midpoint of the dose-response relation) in series [3] was determined as 132 mg/kg; in series [4] (po) it was 8.4 mg/kg; in [4] (sc) it was 14 mg/kg; in the series with bradykinin (ip), 82 mg/kg; in the series on bradykinin (po) it was 13 mg/kg. For the same molecule, the “T.F. Ag.” value in the series on rat tail flick response is given as “Inac”. In series [5], the “T.F. Antag.” value is reported as “Inac”.

On to `CC(CN1CCCCC1CC1CCCCC1)c1cccc(C(=O)c2ccccc2)c1` (stereo not drawn) [12, 14], for which the inhibition in vivo at 5 µmol/kg in series [2] stood at 21%; in series [6], 69%. For the same molecule, the inhibition in vivo at 20 µmol/kg in series [2] is 41%; in series [6] it was 81%. The inhibition in vivo at 80 µmol/kg was found to be 51% in series [2] and 87% in series [6]. In addition, the inhibition in vivo at 324 µmol/kg in [2] (dose 0.324 millimoles/kg) was determined as 69%. Further, the ED50 in series [4] (po) amounted to 55 mg/kg; in the series on bradykinin (po), 63 mg/kg. Further, in [4] (dose 75, s.c.), the “Ach percent inhibition of writhing” value was found to be 27%. Further, the MIC in series [7] was 6 µg/mL (≈ 14.9 µM).

Take `CC1CCCC(C)N1CCc1cccc(C(O)c2ccccc2)c1` (stereo not drawn) [Example 1B, 2,6-Dimethyl-1-{2-[3-(α-hydroxybenzyl)phenyl]ethyl}piperidine]: in series [2], the inhibition in vivo at 4 µmol/kg stood at 0%, the inhibition in vivo at 20 µmol/kg worked out at 0% and the inhibition in vivo at 80 µmol/kg was 13%. For the same molecule, in series [2] (dose 0.324 millimoles/kg), the “toxicity (entry in C.E. column)” value is recorded as “Toxic”. Besides, in series [7], the MIC is 50 µg/mL (≈ 155 µM).

On to `CC(CN1CCCCC1CC1CCCCC1)c1cccc(C(O)c2ccc(Cl)cc2)c1` (stereo not drawn) [Example 5, 2-cyclohexylmethyl-1-{2-[3-(α-hydroxy-4-chlorobenzyl)phenyl]propyl}piperidine], for which, in [2], the inhibition in vivo at 4 µmol/kg was 14% and the inhibition in vivo at 20 µmol/kg turned out to be 41%. In series [6], the inhibition in vivo at 5 µmol/kg was found to be 64%, the inhibition in vivo at 20 µmol/kg turned out to be 70% and the inhibition in vivo at 80 µmol/kg worked out at 88%. For the same molecule, the MIC in series [7] was determined as 6 µg/mL (≈ 13.6 µM).

For the molecule `CC(CN1CCC2(CC1)OCCO2)c1cccc(C(=O)c2ccccc2)c1` (stereo not drawn) [Example 7G, 8-[2-(3-Benzoylphenyl)propyl]-1,4-dioxa-8-azaspiro[4,5]decane], the antipyretic activity entry in [1] (3.25 mg./kg. p.o.) is on record as “not at 6.5 or 3.25 mg./kg”; in series [1] (6.5 mg./kg. p.o.), “not at 6.5 or 3.25 mg./kg”; in series [1] (13 mg./kg. p.o.) it was “Showed significant antipyretic activity”; in [1] (26 mg./kg. p.o.), “Showed significant antipyretic activity”. In addition, the ED50 amounted to 200 mg/kg in series [3], 4.7 mg/kg in series [4] (po) and 14 mg/kg with bradykinin (po). In addition, the “T.F. Ag.” value in the series with rat tail flick response is “Inac”. Besides, the “T.F. Antag.” value in [5] was “Inac”.

With `CC(CN1CCCCC1CC1CCCCC1)c1cccc(Cc2ccccc2)c1` (stereo not drawn) [Example 10, 2-cyclohexylmethyl-1-[2-(3-benzylphenyl)propyl]piperidine], in series [2], the inhibition in vivo at 5 µmol/kg amounted to 7%, the inhibition in vivo at 20 µmol/kg was determined as 26% and the inhibition in vivo at 80 µmol/kg came to 60%. Also, in series [6], the inhibition in vivo at 5 µmol/kg is 25%, the inhibition in vivo at 20 µmol/kg was found to be 63% and the inhibition in vivo at 80 µmol/kg was 91%. In addition, in [7], the MIC came to 6 µg/mL (≈ 15.4 µM).
